SMILES strings stand for the structures. Where “and” joins values, the source holds several entries; their conditions need not be identical. Equal entries are not always repeated.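 Grown in 96-well plates, cells were treated for 48 hours with each compound at five concentrations. Insufficient inhibition: endpoint recorded as highest concentration tested. GI50 is the concentration that inhibits growth by half. Definition used: TGI = concentration required for complete inhibition of growth.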 Some results are limits rather than exact numbers.

Some test systems named below: CAKI-1 renal; HCC-2998 colon; NCI-H522 lung; NCI/ADR-RES ovarian; OVCAR-3 ovarian; SK-OV-3 ovarian; SNB-75 CNS; UACC-257 melanoma.
Common to all, as to assay: inhibition of tumour cell growth, NCI panel, 48 h

Regarding `CC(C)(C)c1ccc(S(=O)(=O)N[C@H]2CC[C@H]3[C@@H]4CCc5cc(O)ccc5[C@H]4CC[C@]23C)cc1`, the GI50 with CAKI-1 renal was 2.28 µM; in the assay on HCC-2998 colon, 2.8 µM; with NCI-H522 lung it was 2.5 µM; with NCI/ADR-RES ovarian, 2.23 µM; with OVCAR-3 ovarian it was 2.09 µM; in the assay on SK-OV-3 ovarian, 3.12 µM. In addition, the figures for the GI50 in the assay with SNB-75 CNS and in the assay with UACC-257 melanoma were 2.08 µM and 2.45 µM, respectively. Further, the TGI came to 6.26 µM in the assay with CAKI-1 renal; 7.1 µM in the assay with HCC-2998 colon; 7.13 µM in the assay with NCI-H522 lung; 5.21 µM with NCI/ADR-RES ovarian; 3.95 µM in the assay on OVCAR-3 ovarian; 8 µM with SK-OV-3 ovarian. In addition, the values for the TGI in the assay on SNB-75 CNS and with UACC-257 melanoma were 6.38 µM and 6.78 µM, respectively.

Turning to `Cc1ccc(OCCCCCCNCCO)c(C)c1`, the GI50 with CAKI-1 renal is 16.2 µM; with HCC-2998 colon, 14.7 µM; in the assay on NCI-H522 lung, 14.7 µM; with NCI/ADR-RES ovarian it was 16.3 µM; in the assay on OVCAR-3 ovarian, 15.5 µM; in the assay with SK-OV-3 ovarian, 15.6 µM. In addition, the GI50 with SNB-75 CNS is 6.47 µM; in the assay with UACC-257 melanoma, 14.2 µM. The TGI in the assay with CAKI-1 renal was found to be 32.2 µM; in the assay on HCC-2998 colon, 30.2 µM; in the assay on NCI-H522 lung, 30.1 µM; in the assay on NCI/ADR-RES ovarian, 37.1 µM; in the assay on OVCAR-3 ovarian, 29.6 µM; in the assay on SK-OV-3 ovarian it was 29.8 µM. For the same compound, the TGI was 20.1 µM with SNB-75 CNS and 29.6 µM in the assay on UACC-257 melanoma.

Regarding `Cn1c(COC(=O)NCCN2CCOCC2)nc2c(N3CCOCC3)nc(-c3ccccc3)nc21`, the GI50 in the assay with CAKI-1 renal is 0.449 µM; in the assay with HCC-2998 colon, 1.62 µM; with NCI-H522 lung, 0.424 µM; with NCI/ADR-RES ovarian, 1.93 µM; with OVCAR-3 ovarian, 0.343 µM; in the assay with SK-OV-3 ovarian it was 4.79 µM. Also, the GI50 was 1.11 µM in the assay on SNB-75 CNS and 1.44 µM in the assay with UACC-257 melanoma. In addition, the TGI in the assay on CAKI-1 renal stood at 1.72 µM; in the assay with HCC-2998 colon it was 3.41 µM; with NCI-H522 lung it was 2.02 µM; with NCI/ADR-RES ovarian, 6.78 µM; with OVCAR-3 ovarian it was 1.53 µM; in the assay with SK-OV-3 ovarian, 16.1 µM. The TGI was found to be 2.67 µM with SNB-75 CNS and 3.16 µM in the assay on UACC-257 melanoma.

Consider `COc1cc(OC)cc(N2CCN(C(=O)Nc3nc4cc(F)ccc4nc3OC)CC2)c1`, for which the GI50 with CAKI-1 renal is 0.0401 µM and 0.034 µM; in the assay with HCC-2998 colon, 0.0445 µM and 0.0377 µM and 0.0381 µM; in the assay with NCI-H522 lung, 0.012 µM and 0.0225 µM; in the assay on NCI/ADR-RES ovarian, < 0.0148 µM and 0.0274 µM and 0.012 µM; in the assay on OVCAR-3 ovarian it was 0.0232 µM and 0.0252 µM and 0.0219 µM; in the assay with SK-OV-3 ovarian, 0.0406 µM and 0.0838 µM and 0.033 µM. Also, the GI50 in the assay with SNB-75 CNS is 0.0197 µM and 0.0243 µM; with UACC-257 melanoma it was 20.1 µM and 12.7 µM. Moreover, the TGI in the assay on CAKI-1 renal is above 100 µM; with HCC-2998 colon it was 31.4 µM and 27.1 µM; in the assay with NCI-H522 lung, 0.534 µM and 0.581 µM and 0.146 µM; in the assay on NCI/ADR-RES ovarian, 45 µM and 28.8 µM; in the assay with SK-OV-3 ovarian, > 47.8 µM and 17.1 µM; in the assay on SNB-75 CNS it was 56.4 µM and 57.2 µM. For the same compound, the TGI in the assay with UACC-257 melanoma is 73.4 µM and 56.8 µM.

Consider `CC(=O)N[C@@H]1CCC[C@H](C(=O)Nc2cc(-c3cnn4c3CC(C)(C)C4)c(Cl)cn2)C1`, for which the GI50 in the assay with CAKI-1 renal was below 0.01 µM; in the assay on HCC-2998 colon, below 0.0149 µM; with NCI-H522 lung it was 0.013 µM; in the assay on NCI/ADR-RES ovarian, 0.199 µM; in the assay on SK-OV-3 ovarian, 0.0633 µM; in the assay with SNB-75 CNS it was below 0.01 µM. Besides, the GI50 with UACC-257 melanoma was 0.0227 µM. The TGI in the assay on CAKI-1 renal was above 100 µM; in the assay with HCC-2998 colon, 0.237 µM; with NCI-H522 lung it was 0.0588 µM; in the assay on NCI/ADR-RES ovarian, above 100 µM; in the assay on SK-OV-3 ovarian, above 100 µM; in the assay with SNB-75 CNS, 0.029 µM. Further, the TGI with UACC-257 melanoma turned out to be 12 µM.

For the compound `COc1ncnc2c(-c3ccco3)cn(COCc3ccccc3)c12`, the GI50 with CAKI-1 renal is above 50 µM; in the assay on HCC-2998 colon it was above 50 µM; with NCI-H522 lung, 9.97 µM; with NCI/ADR-RES ovarian, above 50 µM; in the assay with OVCAR-3 ovarian it was above 50 µM; with SK-OV-3 ovarian, above 50 µM. Also, the GI50 is 12.7 µM in the assay with SNB-75 CNS and above 50 µM with UACC-257 melanoma. The TGI in the assay on CAKI-1 renal, in the assay with HCC-2998 colon, in the assay on NCI-H522 lung, with NCI/ADR-RES ovarian, in the assay with OVCAR-3 ovarian and in the assay with SK-OV-3 ovarian was above 50 µM each time. In addition, the TGI in the assay with SNB-75 CNS and with UACC-257 melanoma was above 50 µM throughout.

With `CC1(C)CC2(C)OC2C2(C1)N=NC(=Nc1ccccc1)O2` (stereo unspecified), the GI50 with CAKI-1 renal was 2.68 µM; in the assay on HCC-2998 colon it was 13.2 µM; in the assay with NCI-H522 lung, 1.61 µM; with NCI/ADR-RES ovarian, 4.44 µM; in the assay on OVCAR-3 ovarian, 2.23 µM; in the assay with SK-OV-3 ovarian, 28.5 µM. Further, the GI50 with SNB-75 CNS is 16.4 µM; in the assay on UACC-257 melanoma it was 4.11 µM. Also, the TGI with CAKI-1 renal is 12.5 µM; with HCC-2998 colon, 26.6 µM; in the assay on NCI-H522 lung it was 3.33 µM; in the assay with NCI/ADR-RES ovarian, 55.2 µM; in the assay with OVCAR-3 ovarian, 4.81 µM; with SK-OV-3 ovarian, above 100 µM. Moreover, the TGI in the assay with SNB-75 CNS came out at 30.4 µM; in the assay on UACC-257 melanoma, 15.7 µM.

Take `C=C(CC1(CC(=C)c2ccc(C(=O)O)cc2)C(=O)N(C)C(=O)N(C)C1=O)c1ccc(C(=O)O)cc1`: the GI50 is 60.3 µM with CAKI-1 renal; 61.2 µM with HCC-2998 colon; 31.3 µM in the assay on NCI-H522 lung; 63.8 µM in the assay with NCI/ADR-RES ovarian; 96.6 µM with OVCAR-3 ovarian; 6.02 µM in the assay with SK-OV-3 ovarian. Moreover, the GI50 in the assay with SNB-75 CNS was 25.2 µM; in the assay with UACC-257 melanoma, 34.9 µM. Moreover, the TGI with CAKI-1 renal was above 100 µM; with HCC-2998 colon it was above 100 µM; in the assay on NCI-H522 lung, above 100 µM; in the assay on NCI/ADR-RES ovarian, above 100 µM; with OVCAR-3 ovarian it was above 100 µM; in the assay with SK-OV-3 ovarian, 58.7 µM. Besides, the TGI with SNB-75 CNS and in the assay with UACC-257 melanoma was above 100 µM each time.

For `COC1C(CO)OC(n2c3ccccc3c3c4c(c5c6ccccc6[nH]c5c32)C(=O)NC4=O)C(O)C1OC(=O)C(N)CCCCN` (stereo unspecified), the GI50 with CAKI-1 renal is 1.21 µM; in the assay with HCC-2998 colon, 1.57 µM; in the assay on NCI-H522 lung it was 0.168 µM; in the assay with NCI/ADR-RES ovarian it was above 50 µM; in the assay with OVCAR-3 ovarian, 0.822 µM; with SK-OV-3 ovarian, 2.11 µM. For the same compound, the GI50 with SNB-75 CNS is 3.62 µM; in the assay on UACC-257 melanoma, 0.648 µM. Further, the TGI in the assay with CAKI-1 renal is 11.7 µM; in the assay with HCC-2998 colon, 17.8 µM; in the assay with NCI-H522 lung, 3.55 µM; in the assay on NCI/ADR-RES ovarian, above 50 µM; in the assay on OVCAR-3 ovarian it was 5.1 µM; with SK-OV-3 ovarian, above 15.5 µM. Further, the TGI with SNB-75 CNS is above 22.8 µM; with UACC-257 melanoma it was above 10.2 µM.

For the origin of these results see PubChem BioAssay (NCI).
